Reference: patent US9808434B2, “Compound for treating cancer and diabetes” (CITY OF HOPE, priority 2011, dated 2017)
“Also recorded” adds a separate entry of the source.

Assays:
AMPK = AMPK activation in Hela cells, Western blot; format: cell-based; conditions: 1 hour, 1, 3 or 5 μM
Description: Activation of AMPK was associated with the phosphorylation of the α-subunit on Thr-172 of as assessed using phospho-specific antibodies (FIGS. 10A-B). AMPK activation also leads to the increased phosphorylation of the target protein acetyl-CoA carboxylase (ACC) (FIG. 10B).
Cells of each cell lines (Hela, HL-60, and 3T3-L1) were treated for 1 hour with a test compound (COH-SR4, COH-SR9, COH-SR16, or COH-SR18) at a concentration of 1 μM, 3 μM, or 5 μM, or AICAR (5-aminoimidazole-4-carboxamideriboside, an AMPK agonist used as positive control) at a concentration of 500 μM, or none of the above (the untreated cells as negative control). Total cell lysates from the untreated cells and the cells treated with a test compound or AICAR were analyzed by Western blot assay using specific antibodies against phospho-AMPK, phospho-ACC, total AMPK and total ACC.

[1] = test system: cyclin D1, cyclin E2, CDK2, CDK4, p21WAF1/Cip1, p27Kip1; assay: HL-60 cell cycle regulatory proteins, Western blot; format: cell-based, human; conditions: 24 hours, 0.5-3 μM
Description: HL-60 cells were treated without or with COH-SR4 or COH-SR9 at a concentration of 0.5 μM, 1 μM, 2 μM, or 3 μM for 24 hours. Then the total cell lysates from the treated cells or untreated cells were resolved under electrophoresis and immunoblotted with antibodies against cyclin D1, cyclin E2, CDK2, CDK4, p21WAF1/Cip1, p27Kip1, and β-actin. β-actin served as an internal control. Densitometric quantitation was performed on each blot and the arbitrary numbers above each band represent the fold increase/decrease compared with untreated control. […] These kinase inhibitors are known to interfere with cell cycle progression to cause phase-specific cycle arrest by perturbing the phosphorylation process through direct interaction with their target proteins (cyclins or CDK).

HL-60 cells [2] = assay: HL-60 apoptosis, Annexin V-PI double staining; format: cell-based, human; conditions: 3 μM, 48 hours
Description: HL-60 (5×10^5) cells were incubated with a test compound (COH-SR4 or COH-SR9), ATRA, or nothing (Control) for 48 hours, washed and harvested. The cells were then fixed and double stained with Annexin V-FITC and propodium iodide (PI) and analyzed by flow cytometry. Conjugation of Annexin V and PI staining was used to identify apoptosis cells (early stage and late stage), normal/viable cells and necrotic cells. The percentage distribution of normal/viable (R3, lower left quadrant), early apoptotic (R4, lower right quadrant), late apoptotic (R2, upper right quadrant) and necrotic cells (R1, upper left quadrant) was calculated using Summit software. The percentages of apoptotic cells after treatment with various doses of each compound are shown in FIGS. 16A-H. Both COH-SR4 and COH-SR9 treatment of HL-60 cells increased the number of early apoptotic and late apoptotic cells in a dose-dependent manner compared with untreated cells. At 3 μM, overall apoptotic cells were ˜60% and 40% for COH-SR4 and COHSR9, respectively.

HL-60 cells [3] = assay: HL-60 apoptosis markers (DNA ladder, DiOC6(3), caspases, cytochrome c, PARP); format: cell-based, human; conditions: for DiOC6(3) fluorescence (mitochondrial depolarization): 4 hours; for cytochrome c release and PARP: 24 hours; for cytochrome c release and PARP / caspase 3/7 and caspase 9 activity: 0.5-3 μM; for caspase 3/7 and caspase 9 activity: 48 hours; for DNA fragmentation (DNA ladder): agarose gel
Description: DNA was stained with ethidium bromide after electrophoresis on 1.5% agarose gel and then visualized under UV light.
To test whether mitochondrial membrane disruption was involved in the apoptotic effects of COH-SR4 and COH-SR9, fluorescent cationic lipophilic dye DiOC6(3) was used and monitored using flow cytometry. HL-60 cells were exposed to various concentrations of COH-SR4 or COH-SR9 for 4 hours. After incubation, cells were rinsed and stained with the cationic fluorescent dye DiOC6(3) and then the overall fluorescence was analyzed by flow cytometry. […] Reduction of the fluorescence intensity of DiOC6(3) is indicative of the cells undergoing mitochondrial depolarization and loss of Δψmt. This effect, which has been commonly observed with other anticancer drugs irrespective of the cell type, generally defines an early but already irreversible stage of apoptosis.
HL-60 (2.5×10^4) cells were seeded into 96-well plates and incubated with a test compound (COH-SR4 or COH-SR9) at various concentrations (0.5˜3 μM) for 48 hours, then caspase-3/7 or caspase-9 activity was measured with the Caspase Glo kit (Promega), respectively. Data are expressed as mean±SE from 3 independent experiments (FIG. 18A), “*” in the figure means p<0.05 when compared to the untreated control.
Treatment of COH-SR compounds also triggered release of cytochrome c (14 kDa) into the cytoplasm and cleavage of full length PARP (116 kDa) into the 89 kDa fragment, all hallmarks of cells undergoing apoptosis (FIG. 18B). HL-60 cells were treated with COH-SR4 or COH-SR9 at various concentrations (0.5 μM˜3 μM) or nothing for 24 hours. Cytochrome c (14 kDa) and cleavage of full length PARP (116 kDa) into the 89 kDa fragment were analyzed in untreated HL-60 cells and HL-60 cells treated with COH-SR4 or COH-SR9 by Western blot. Numbers below each blot represent fold increase in protein expression relative to the control as quantified by densitometry and calculated with reference to β-actin as an internal standard.

[4] = test system: NCI-60 human tumor cell lines; assay: NCI-60 DTP Human Tumor Cell Line Drug Screening; format: cell-based; conditions: leukemia, NSCLC, colon, CNS, melanoma, ovarian, renal, prostate, breast lines
Source text: Moreover, preliminary data from the NCI-60 DTP Human Tumor Cell Line Drug Screening (http://dtp.nci.nih.gov/branches/btb/ivclsp.html) further confirmed the observations on these COH-SR compounds. […] A value of 100 meant no growth inhibition. A value of 20 meant 80% growth inhibition. A value of 0 meant no net growth over the course of the experiment. A value of −40 meant 40% lethality. A value of −100 meant all cells were dead.

[5] = test system: HMLE breast cancer cell line; assay: HMLE viability, DIMSCAN assay; format: cell-based, human; conditions: 3 days, 2-50 μM
Description: The effects of COH-SR compounds on breast cancer cells were investigated. Cells from 4T1 or HMLE breast cancer cell line were seeded in 96-well plates (about 2000 cells/well), allowed to proliferate for one day, treated with a COH-SR compound, doxorubicin, paclitaxel, cisplatin, or nothing (control) at a specific dose (3 wells for each treatment) and assayed for cell viability 3 days after using DIMSCAN assay. COH-SR3, COH-SR4, COH-SR9, doxorubicin, paclitaxel, and cisplatin were used at a dosage of 40 nM, 200 nM, 1 μM, 2 μM, 10 μM, or 50 μM for 4T1 breast cancer cell lines. COH-SR14 was used at a dosage of 40 nM, 200 nM, 1 μM, 2 μM, or 10 μM for 4T1 breast cancer cell lines. COH-SR3, COH-SR4, COH-SR9, doxorubicin, paclitaxel, and cisplatin were used at a dosage of 2 μM, 10 μM, or 50 μM for HMLE breast cancer cell lines. COH-SR14 was used at a dosage of 2 μM, or 10 μM for HMLE breast cancer cell lines.

HL-60 cells [6] = assay: HL-60 cell viability, MTT assay; conditions: for cytotoxicity and cell proliferation: 48 hours, 1-15 μM
Description: Three independent experiments were carried out with 3 duplications each, and data are shown as mean±SE.

## Cc1c(Cl)cc(NC(=O)Nc2cc(Cl)cc(Cl)c2)c(O)c1Cl [COH-SR9, 1-(3,5-dichlorophenyl)-3-(3,5-dichloro-2-hydroxy-4-methyphenyl) urea]
AMPK
  AMPK activation: Dose-dependent AMPK activation
[1]
  protein levels of CDK inhibitors p21WAF1/Cip1 and p27Kip1: upregulated
  protein levels of cyclin D1, cyclin E2, CDK2 and CDK4: dose-dependent reduction in the protein levels of cyclin D1, cyclin E2, CDK2 and CDK4
HL-60 cells [2]
  overall apoptotic cells: 40%
HL-60 cells [3]
  DiOC6(3) fluorescence (mitochondrial depolarization): decreased overall DiOC6(3) fluorescent intensity
  cytochrome c release and PARP: release of cytochrome c into the cytoplasm and PARP enzyme activation
  caspase 3/7 and caspase 9 activity: higher caspase 3/7 and caspase 9 activity
  DNA fragmentation (DNA ladder): dose-dependent DNA fragmentation
[4]
  activity in NCI-60 screening: active against
[5]
  cytotoxic effects compared with doxorubicin, paclitaxel and cisplatin (FIG. 30): more potent cytotoxic effects
HL-60 cells [6]
  cytotoxicity and cell proliferation: exhibited cytotoxicity and prevented cell proliferation of HL-60 leukemia cells
HL-60 cells [6]; 72 hours incubation
  IC50: ~2500 nM

## O=C(Nc1cc(Cl)cc(Cl)c1)Nc1cc(Cl)cc(Cl)c1 [COH-SR4, 1,3-bis(3,5-dichlorophenyl) urea]
AMPK
  AMPK activation: highest potency; also recorded: Dose-dependent AMPK activation
[1]
  protein levels of CDK inhibitors p21WAF1/Cip1 and p27Kip1: upregulated
  protein levels of cyclin D1, cyclin E2, CDK2 and CDK4: dose-dependent reduction in the protein levels of cyclin D1, cyclin E2, CDK2 and CDK4
HL-60 cells [2]
  overall apoptotic cells: ~60%
HL-60 cells [3]
  DiOC6(3) fluorescence (mitochondrial depolarization): decreased overall DiOC6(3) fluorescent intensity
  cytochrome c release and PARP: release of cytochrome c into the cytoplasm and PARP enzyme activation
  caspase 3/7 and caspase 9 activity: higher caspase 3/7 and caspase 9 activity
  DNA fragmentation (DNA ladder): dose-dependent DNA fragmentation
[4]
  activity in NCI-60 screening: active against
[5]
  cytotoxic effects compared with doxorubicin, paclitaxel and cisplatin (FIG. 30): more potent cytotoxic effects
HL-60 cells [6]
  cytotoxicity and cell proliferation: exhibited cytotoxicity and prevented cell proliferation of HL-60 leukemia cells
HL-60 cells [6]; Homo sapiens, HL-60, 48 h
  IC50: < 5000 nM
HL-60 cells [6]; Homo sapiens, HL-60, 72 h
  IC50: ~1700 nM
